In patent US11738026B2, “Combination therapy comprising an ALK2 inhibitor and a JAK2 inhibitor” (INCYTE CORPORATION, priority 2019, dated 2023):

Test system: C57Bl/6 mice
Experiment: Turpentine-induced anemia in mice on low iron chow; complete blood counts
Format: in vivo
Method: C57Bl/6 mice (7-8-week-old, female) were purchased from Charles River Laboratories, Wilmington, Mass., and placed on low iron chow (Test Diet #AIN-76A 5TJK) two weeks prior to beginning study. Mice were continued on this diet through the course of the study. Mice were injected subcutaneously in the intrascapular region of the back of the recipient mouse with sterile filtered turpentine (Aldrich, cat #24245), or sterile saline in a 100 ul volume every week for three weeks. Therapeutic agents were orally administered at a total volume of 10 mL/kg body weight. Mice were administered vehicle (0.5% DMAC: […]) or compound (n=10 per dose group) starting shortly after the first turpentine injection (day 0), and continuing every day until the study termination. Blood was collected via by orbital sinus once weekly, and complete blood counts (CBCs) were determined by hematology instrumentation (Abaxis, model HM5). Statistical analyses were performed using Graphpad Prism software. Mice were handled according to Incyte IACUC protocols.
Together these experiments indicate that ALK2 inhibition can reverse the decreases in RBC counts, hemoglobin, and hematocrit brought on by turpentine generated, inflammation induced anemia, and this anti-anemia efficacy from ALK2 inhibition is possible in the presence of ruxolitinib.

[1] = 30 mg/kg BID, day 21 post first turpentine injection, FIG. 2, change statistically significant by unpaired t-test
[2] = 100 mg/kg QD, 28 days post first turpentine injection, FIG. 1
[3] = mice also dosed with ruxolitinib (90 mg/kg BID), FIG. 2 (Compound A 30 mg/kg BID)

SMILES	hematocrit [1]	hemoglobin [1]	red blood cell count [1]	hematocrit [2]	hemoglobin [2]	red blood cell count [2]	anemia brought on by turpentine (100 mg/kg QD, oral, daily from day 0, turpentine s.c. weekly for three weeks)	RBC [3]	hematocrit levels [3]	hemoglobin [3]	anemias brought on by turpentine injection (90 mg/kg BID, oral, in each experiment)
Nc1ncc(-c2ccc([C@@]34C[C@@H]3CN(C3CCOCC3)C4)cc2)cc1C(=O)NC12CCC(O)(CC1)CC2 [Compound A, 2-amino-N-(4-hydroxybicyclo-[2.2.2]octan-1-yl)-5-(4-((1R,5S)-3-(tetrahydro-2H-pyran-4-yl)-3-azabicyclo-[3.1.0]hexan-1-yl)phenyl)nicotinamide]	the same trend was demonstrated	the same trend was demonstrated	the same trend was demonstrated	levels similar to saline (non-turpentine induced anemia) control	levels similar to saline (non-turpentine induced anemia) control	levels similar to saline (non-turpentine induced anemia) control	corrected the anemia brought on by turpentine	significant increases	significant increases	significant increases	–
N#CC[C@H](C1CCCC1)n1cc(-c2ncnc3[nH]ccc23)cn1 [ruxolitinib, (R)-3-(4-(7H-pyrrolo[2,3-d]pyrimidin-4-yl)-1H-pyrazol-1-yl)-3-cyclopentylpropanenitrile, reference compound]	–	–	–	–	–	–	–	–	–	–	exacerbated the anemias
